A short description of data set [1]: in vivo. The settings on record: rat, iv.
The nature of data set [2]: in vivo. Particulars: rat, iv. This is another data set of the same source.
Data set [3] is described as follows: in vivo. The settings on record: rat, iv. The source holds these as a separate data set.
Data set [4] in a line: in vivo. Particulars: rat, iv. This is another data set of the same source.
Data set [5] in a line: in vivo. Particulars: rat, po, 4.2 mg/kg.

By clearance is commonly meant the rate of elimination divided by the concentration. A high value points to a high capacity for elimination. The Vd is a proportionality between amount in the body and measured concentration, not a real space. Higher therefore signals wide distribution into tissue. Usually Cmax stands for the maximum level reached in the sampled fluid or tissue. The half-life is how long it takes for the measured level to halve. As usually defined, the bioavailability is dose-corrected exposure relative to a reference, in per cent. Low readings indicate little systemic uptake, high ones much systemic uptake. Consider `Cc1ccccc1CN(c1ccc(C#N)c(Cl)c1)[C@H]1CCN(S(C)(=O)=O)C1`, for which the clearance in data set [1] came to 98 mL/min/kg. The compound further displayed a Vd in data set [2] of 12 L/kg. In data set [3], the peak level (Cmax) was 221 ng/mL. In data set [4], this compound showed a half-life of 1.6 h. Further, the bioavailability in data set [5] worked out at 100%.
